Test results taken from patent US5457091A, “N1-substituted 1H-1,2,3-triazolo[4,5,-D]pyrimidines, a process for their preparation and their use as antiviral agents” (priority 1992, dated 1995).
Converted amounts (≈) assume the structure as drawn. Where two headings read alike, the source gives them in different places.

Legend:
[1] = Cytotoxicity by microscopic inspection, MRC-5 cells; type: cell-based; conditions: human, read-out: MTD (maximum tolerated dose)
Method: (§1) The test substances are diluted in ethanol to a final concentration of 1 mg/ml before the test, and Dulbecco's minimal essential medium (MEM) is used for further dilution steps. For the test, serial 3-fold dilutions of the test substances are made up in 96-well microtiter plates. Monkey kidney cells (Veto) in medium199 (5% FCS) or human embryonic diploid pulmonary fibroblast cells MRC-5 (Whittaker) are added in a concentration of 2×10^4 cells/well and incubated at 37° C. (5% CO2) for 3 h.
(§2) The test mixtures contain the test substance in concentrations from 400 μg/ml to 0.18 μg/ml in MEM supplemented with 4% FCS (HeLa) or 2% FCS (Veto), 100 U/ml penicillin G and 100 μg/ml streptomycin.
(§3) The cultures are incubated at 37° C. in the presence of 5% CO2. All the investigations are carried out as duplicate determinations; controls are determined only once per plate.
(§4) After incubation for 24 h, the cytotoxicity of the test substances is determined by microscopic inspection of the cell cultures. The maximum tolerated dose (MTD) is designated as the highest concentration of product which, under the said test conditions, is insufficient to cause microscopically detectable cell damage.

HCMV VR977 = assay: CPE inhibition, HCMV VR977 in MRC-5 cells; type: cell-based, human cytomegalovirus; conditions: Human betaherpesvirus 5, MRC5, MIC = concentration protecting 50% of cells from CPE
Method: (§5) The antiviral activity of the test substances on various human pathogenic DNA and RNA viruses was investigated in cell culture test systems.
as §1, §2
(§6) The cells are then infected with type 1 herpes simplex virus (corneas), type I herpes simplex virus VR733, type 1 herpes simplex virus VR539 (hominis), type 2 herpes simplex virus VR734 (MS), human cytomegalovirus VR977 or varicella zoster virus VR586 in concentrations at which the cell lawn is completely destroyed within 3 days (CMV: 7 days, VZV: 10 days) (for example HSV-1 corneae: 0.035 PFU/Vero cell, HSV-2: 0.066 PFU/Vero cell).
as §3
(§7) The untreated infection controls show a complete cytopathogenic effect (CPE) after incubation for a further 48 h (HCMV after 6 days, VZV after 9 days). After microscopic inspection of the cell cultures (HSV, HCMV, VZV), they are then stained (only HSV) with neutral red in accordance with the vital staining method of Finter (1966). The antiviral activity of a test substance is defined as the minimum inhibitory concentration (MIC) which is required to protect 50% of the cells from the cytopathogenic effect of the virus.

HSV-1 corneae = assay: CPE inhibition, HSV-1 corneae in Vero cells; type: cell-based, type 1 herpes simplex virus; conditions: Human alphaherpesvirus 1, MIC = concentration protecting 50% of cells from CPE
Method: as §5, §1, §2, §6, §3, §7

HSV-1 labialis = assay: CPE inhibition, HSV-1 labialis in Vero cells; type: cell-based, type 1 herpes simplex virus; conditions: Human alphaherpesvirus 1, MIC = concentration protecting 50% of cells from CPE
Method: as §5, §1, §2, §6, §3, §7

HSV-1 VR733 = assay: CPE inhibition, HSV-1 VR733 in Vero cells; type: cell-based, type 1 herpes simplex virus; conditions: Human alphaherpesvirus 1, MIC = concentration protecting 50% of cells from CPE
Method: as §5, §1, §2, §6, §3, §7

[2] = Cytotoxicity by microscopic inspection, Vero cells; type: cell-based; conditions: monkey
Method: as §1, §2, §3, §4

HSV-2 VR734 = assay: CPE inhibition, HSV-2 VR734 in Vero cells; type: cell-based, type 2 herpes simplex virus; conditions: Human alphaherpesvirus 2, MIC = concentration protecting 50% of cells from CPE
Method: as §5, §1, §2, §6, §3, §7

HSV-1 VR539 = assay: CPE inhibition, HSV-1 VR539 in Vero cells; type: cell-based, type 1 herpes simplex virus; conditions: Human alphaherpesvirus 1, MIC = concentration protecting 50% of cells from CPE
Method: as §5, §1, §2, §6, §3, §7

herpesviruses = assay: Antiviral activity against herpesviruses (general statement); conditions: in words
VZV VR586 = assay: CPE inhibition, VZV VR586 in MRC-5 cells; type: cell-based, varicella zoster virus; conditions: Human alphaherpesvirus 3, MRC5, read-out: MIC VZV VR586
Method: as §5, §1, §2, §3
as §7, with “After” for “The untreated infection controls show a complete cytopathogenic effect (CPE) after incubation for a further 48 h (HCMV after 6 days, VZV after 9 days). After”

HSV-1 = assay: Therapeutic efficacy in NMRI mice infected intraperitoneally with HSV-1; type: in vivo; conditions: for Surviving/group size: observed 2 weeks; for ED50: Human alphaherpesvirus 1, from Reed & Muench, read-out: IC50 (the source's name)
[3] = Vero cells, 24 h, read-out: MTD (maximum tolerated dose)

| Structure (SMILES) | MNTC at 24 h [1] [µg/mL] | EC50 (HCMV VR977) [mg/L] | EC50 (HSV-1 corneae) [mg/L] | EC50 (HSV-1 labialis) [mg/L] | EC50 (HSV-1 VR733) [mg/L] | EC50 (HSV-2 VR734) [mg/L] | EC50 (HSV-1 VR539) [mg/L] | activity against herpesviruses (herpesviruses) | EC50 (VZV VR586) [mg/L] | MNTC at 24 h [2, 3] [µg/mL] | Average survival time (HSV-1; 9 × 3 μmol/kg ip) [days] | Surviving/group size (HSV-1; 9 × 3 μmol/kg ip) | Average survival time (HSV-1; 9 × 3 μmol/kg po) [days] | Surviving/group size (HSV-1; 9 × 3 μmol/kg po) | Surviving/group size (HSV-1; 9 × 10 μmol/kg ip) | Average survival time (HSV-1; 9 × 10 μmol/kg po) [days] | Surviving/group size (HSV-1; 9 × 10 μmol/kg po) | Surviving/group size (HSV-1; 9 × 30 μmol/kg ip) | ED50 (HSV-1; ip) [µmol/kg] | ED50 (HSV-1; po) [µmol/kg] | other results |
| --- | --- | --- | --- | --- | --- | --- | --- | --- | --- | --- | --- | --- | --- | --- | --- | --- | --- | --- | --- | --- | --- |
| Nc1nc2c(ncn2COCCO)c(=O)[nH]1 [Aciclovir, reference compound] | ≥ 400 | 1.16 (≈ 5.15 µM) | ≤ 0.98 | 0.56 (≈ 2.49 µM) | 0.56 (≈ 2.49 µM) | ≤ 0.4 | 0.98 (≈ 4.35 µM) |  |  |  |  |  |  |  |  |  |  |  |  |  | MNTC at 24 h ([2]; vero cells): ≥ 400 µg/mL |
| CC(C)OCC(COC(C)C)OCn1nnc2nc(N)ncc21 [Example 7, 5-amino-1H-1-[(1,3-bis-isopropoxy-2-propoxy)methyl]-1,2,3-triazolo[4,5-d]pyrimidine] |  |  |  |  |  |  |  | particularly high activity against herpesviruses |  |  |  |  |  |  |  |  |  |  |  |  |  |
| CC(=O)Nc1ncc2c(nnn2COC(CO)CO)n1 [Example 8, 5-acetamido-1H-1-[(1,3-dihydroxy-2-propoxy)methyl]-1,2,3-triazolo[4,5-d]pyrimidine] | ≥ 311 | 7.13 (≈ 25.3 µM) | 11.5 (≈ 40.8 µM) | 7.68 (≈ 27.2 µM) | 6.58 (≈ 23.3 µM) | 37 (≈ 131 µM) | 24.7 (≈ 87.5 µM) |  | 0.18 (≈ 0.638 µM) | ≥ 333 |  |  |  |  |  |  |  |  |  |  |  |
| Nc1ncc2c(nnn2COC(CO)CO)n1 [Example 9, 5-amino-1H-1-[(1,3-dihydroxy-2-propoxy)methyl]-1,2,3-triazolo[4,5-d]pyrimidine] | ≥ 356 | < 0.27 | 1.65 (≈ 6.87 µM) | 1.1 (≈ 4.58 µM) | 1.28 (≈ 5.33 µM) | 2.93 (≈ 12.2 µM) | 4.94 (≈ 20.6 µM) | particularly high activity against herpesviruses | < 0.18 | ≥ 333 | 6.3 ± 0.6 | 2/5 | 8.8 ± 1.6 | 0/5 | 5/5 | 6.2 ± 0.5 | 0/5 | 5/5 | 3.7 | > 30 | Average survival time (HSV-1; 9 × 30 μmol/kg po): 8.0 ± 1.7 days; Surviving/group size (HSV-1; 9 × 30 μmol/kg po): 0/5 |
| CC(=O)OCC(COC(C)=O)OCn1nnc2nc(N)ncc21 [Example 10, 5-amino-1H-1-[(1,3-diacetoxy-2-propoxy)methyl]-1,2,3-triazolo [4,5-d]pyrimidine] | ≥ 74.1 | < 0.3 | 14.8 (≈ 45.7 µM) | 9.88 (≈ 30.5 µM) | 11.5 (≈ 35.5 µM) | 24.7 (≈ 76.1 µM) | 24.7 (≈ 76.1 µM) | particularly high activity against herpesviruses | < 0.18 | ≥ 311 |  |  |  |  |  |  |  |  | < 9 | 19.7 | Average survival time (HSV-1; 9 × 9 μmol/kg ip): 11.0 ± 1.4 days; Surviving/group size (HSV-1; 9 × 9 μmol/kg ip): 3/5; Average survival time (HSV-1; 9 × 9 μmol/kg po): 8.8 ± 1.8 days; Surviving/group size (HSV-1; 9 × 9 μmol/kg po): 0/5; Surviving/group size (HSV-1; 9 × 31 μmol/kg ip): 5/5; Average survival time (HSV-1; 9 × 31 μmol/kg po): 12.0 days; Surviving/group size (HSV-1; 9 × 31 μmol/kg po): 4/5; Surviving/group size (HSV-1; 9 × 93 μmol/kg ip): 5/5; Surviving/group size (HSV-1; 9 × 93 μmol/kg po): 5/5 |
| Nc1nc(O)c2ncn(COC(CO)CO)c2n1 [Ganciclovir, reference compound] | ≥ 400 | 0.06 (≈ 0.235 µM) | 0.85 (≈ 3.33 µM) | ≤ 0.18 | 0.95 (≈ 3.72 µM) | 1.93 (≈ 7.56 µM) | 1.65 (≈ 6.46 µM) |  | 6.13 (≈ 24 µM) | ≥ 400 | 8.0 ± 0 | 3/5 | 11.3 ± 1.5 | 1/5 | 5/5 | 9.5 ± 0.7 | 3/5 | 5/5 | < 3 | 6.8 | Surviving/group size (HSV-1; 9 × 30 μmol/kg po): 5/5 |
